# Experimental data as given in US20250099407A1, “2-AMINO BENZOPHENONE DERIVATIVES FOR TARGETED FERROPTOSIS INDUCTION IN CANCER THERAPY” (INDIAN INSTITUTE OF TECHNOLOGY KANPUR, priority 2023, published 2025).
# Test system: Huh-7 cells
# Test: Intracellular ROS, H2-DCFDA oxidation assay in Huh-7 cells
# Type: cell-based
# Conditions: Huh-7, 37° C., 30 min; IITK3001 and IITK3002 20 μM, H2O2 100 μM
# Protocol: We used fluorescence imaging-based oxidation of H2-DCFDA by ROS for assessing intracellular oxidative stress. Huh-7 cells were treated at 37° C. for 30 min with IITK3001 and IITK3002 (20 μM), H2O2 (100 μM), ^tertBuOOH (20 μM), NAC (0.5 mM) and 0.1% DMSO as control. Each experiment was conducted in more than two biological replicates with three technical replicates.
# b. Effect of Thiols and Ferroptosis Modulators on the Hit Molecules' Antiproliferative Potency: Ferroptosis is directly controlled by the intracellular thiol concentrations in the form of cysteine and glutathione. Several oxidative mechanisms are well-wired in ferroptotic cell death and we set out to investigate the precise molecular mechanism of our lead molecules. Both cysteine and glutathione (GSH) are the enriched thiol-containing small molecule antioxidant system that are essential regulators of redox modulation in cells including ferroptosis. Further, the enzyme glutathione peroxidase 4 (GPX4) is well characterized to specifically quench the lipid peroxide equivalents in cells through the conversion of […] in cells thereby restoring the reduced environment in cells. Therefore, first, we assessed the ability of N-acetylcysteine (NAC) and GSH to suppress our lead molecules antiproliferative activity (FIG. 4a, b). We found a drastic reduction in the molecules' potency with IITK3001 (>1000-fold reduction) and IITK3002 (>500-fold reduction) (FIG. 14a, b). Supporting that, the addition of DL-Buthionine sulfoximine (BSO), an inhibitor of y-glutamylcysteine synthetase (glutathione biosynthesis) combination with our lead molecules potentiated the overall inhibitory capacity (FIG. 14a, b). […] Finally, we assessed the effect of Ferrostain-1 (Fer-1) and Liproxstatin-1 (Lip-1), antioxidants that function by trapping reactive radicals in cells, particularly lipid-peroxide radicals, and preventing the accumulation of lipid peroxides in cells. […] The accumulation of lipid peroxides and overall ROS was also detected using a fluorescence-based H2DCF-DA assay as depicted in FIG. 15. […]
compound,measurement,value
"OO [Hydrogen peroxide, reference compound]","intracellular ROS, H2DCF-DA fluorescence intensity",drastic enhancement in the fluorescence intensity
